One assay concerns the target T1, 5-Lipoxygenase (Rattus norvegicus, UniProt P12527).
T1 construct: endogenous in cells; host or cells: RBL-1 (rat basophilic leukemia) cells
T1 sequence (P12527 1-673): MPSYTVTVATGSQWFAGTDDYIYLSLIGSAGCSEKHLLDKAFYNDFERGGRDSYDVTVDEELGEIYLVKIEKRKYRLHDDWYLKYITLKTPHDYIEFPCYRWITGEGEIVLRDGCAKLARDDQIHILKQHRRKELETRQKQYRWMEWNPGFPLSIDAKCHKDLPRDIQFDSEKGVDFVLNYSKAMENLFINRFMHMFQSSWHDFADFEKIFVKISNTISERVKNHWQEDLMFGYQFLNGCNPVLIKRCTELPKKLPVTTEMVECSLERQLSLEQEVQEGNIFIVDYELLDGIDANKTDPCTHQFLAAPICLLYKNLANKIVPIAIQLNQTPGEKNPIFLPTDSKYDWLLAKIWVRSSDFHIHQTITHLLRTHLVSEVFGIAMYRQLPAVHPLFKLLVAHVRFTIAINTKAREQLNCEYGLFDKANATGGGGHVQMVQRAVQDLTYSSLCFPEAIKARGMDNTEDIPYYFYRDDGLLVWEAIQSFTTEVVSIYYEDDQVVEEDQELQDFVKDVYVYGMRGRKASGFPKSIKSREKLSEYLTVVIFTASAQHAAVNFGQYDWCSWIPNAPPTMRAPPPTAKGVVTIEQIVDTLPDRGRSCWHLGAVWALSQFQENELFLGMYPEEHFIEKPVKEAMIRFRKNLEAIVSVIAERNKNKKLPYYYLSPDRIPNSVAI
As to the kind of experiment: 5-Lipoxygenase inhibiting action: 5-HETE production in rat basophilic leukemia (RBL-1) cells (HPLC). In kind it is cell-based. The conditions noted are these: read-out: Effect of Inhibiting 5-Lipoxygenase, % Inhibition (IE). As to the method:
In 0.5 ml of MCM (mast cell medium) was suspended 10^7 of rat basophilic leukemia (RBL-1) cells. To this suspension was added the test solution previously prepared [consisting of 0.5 ml of MCM, 50 μg of arachidonic acid, 10 μg of calcium ionophore A-23187 and the test compound (final concentrations 10 μm, 1 μm, 0.1 μm and 0.01 μm)], and the reaction was allowed to proceed at 37° C. for 20 minutes. To the reaction mixture was added 4 ml of ethanol, which was shaken sufficiently, followed by leaving the resultant mixture standing for 10 minutes at room temperatures. The resultant mixture was subjected to a centrifuge (2000 rpm) for 10 minutes, then the supernatant was separated. Thus-separated supernatant was concentrated to dryness under reduced pressure. To the concentrate was added 0.5 ml of a 60% aqueous methanol. A 100μl Portion of this solution was taken and subjected to high performance liquid chromatography to perform quantitative determination of 5-HETE (5-hydroxyeicosatetraenoic acid). UV absorption of 5-HETE at 237 nm was measured with a UV absorption monitor. The inhibitory effect (IE) of 5-HETE is expressed by (1-b/a)×100. In this formula, a means the height of the peak or the area of the peak in the case of presence of no compound (I), while b means the height of the peak or the area of the peak in the case of presence of the compound (I).

Another assay deals with T2, 12-Lipoxygenase (Rattus norvegicus, UniProt F1LQ70).
T2 construct: from tissue; host or cells: Wistar rat platelets (PRP mixed with PPP, from citrated aortic blood)
T2 sequence (F1LQ70 1-663): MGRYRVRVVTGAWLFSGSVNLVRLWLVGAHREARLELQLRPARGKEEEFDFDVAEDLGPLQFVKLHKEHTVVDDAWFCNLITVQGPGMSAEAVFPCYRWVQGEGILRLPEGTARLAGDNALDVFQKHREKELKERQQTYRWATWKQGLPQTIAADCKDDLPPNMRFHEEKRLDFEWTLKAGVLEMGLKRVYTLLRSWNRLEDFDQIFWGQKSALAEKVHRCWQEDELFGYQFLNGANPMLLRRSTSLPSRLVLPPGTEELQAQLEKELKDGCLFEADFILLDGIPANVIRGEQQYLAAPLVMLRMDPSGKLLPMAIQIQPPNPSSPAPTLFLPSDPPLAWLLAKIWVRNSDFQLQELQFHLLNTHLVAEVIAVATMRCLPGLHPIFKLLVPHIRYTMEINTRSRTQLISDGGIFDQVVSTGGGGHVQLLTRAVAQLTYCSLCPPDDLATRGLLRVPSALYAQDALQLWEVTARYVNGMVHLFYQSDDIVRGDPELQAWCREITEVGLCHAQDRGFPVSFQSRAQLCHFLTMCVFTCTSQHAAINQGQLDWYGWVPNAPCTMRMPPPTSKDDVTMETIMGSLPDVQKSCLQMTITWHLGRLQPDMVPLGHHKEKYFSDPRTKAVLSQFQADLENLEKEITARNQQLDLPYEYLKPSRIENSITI
Kind of assay: 12-Lipoxygenase inhibitory action: 12-HETE production in Wistar rat platelets (HPLC). In kind it is cell-based. The conditions noted are these: read-out: 12-Lipoxygenase Inhibitory Action, % Inhibition (IE); for inhibition at 100 µM: 10^-4 M; for inhibition at 10 µM: 10^-5 M; for inhibition at 1 µM: 10^-6 M; for inhibition at 0.1 µM: 10^-7 M. The procedure:
Through the descending aorta of a Wistar rat, 10 ml of blood was collected, under anesthesia, together with citric acid of a volume corresponding to 10%. PRP and PPP were respectively prepared, then they were mixed to make the number of platelets to be 10^9 /ml. To 2.5 μl each of the test solutions prepared in advance (final concentrations of the test compounds : 100 μm, 10 μm, 1 μm and 0.1 μm) was added 0.225 ml of the platelet solution. The respective solutions were kept at 37° C. for 5 minutes, to which was added 25 μl each of arachidonic acid solution (50 μg/ml) , then the respective mixtures were shaken immediately. The reaction was allowed to proceed at 37° C. for 15 minutes, and there was added ethanol (1 ml) to stop the reaction. The reaction mixture was subjected to a centrifuge (2000 rpm) for 5 minutes. One ml of the supernatant was taken, which was mixed with 1 ml of water. 100 μl of this mixture solution was subjected to high performance liquid chromatography to quantitatively determine 12-HETE. The detection was conducted at 240 nm. The calculation of the inhibition rate was conducted in a manner as in the case of 5-HETE.

As a reminder, the inhibition is how much of the control response was suppressed. Take `Cc1c(C)c2c(c(C)c1O)CC(C)(CC#N)O2` (stereo not shown) [Compound 5, 5-hydroxy-2-cyanomethyl-2,4,6,7-tetramethyl-2,3-dihydrobenzofuran]: on 5-Lipoxygenase (10^-5 M), the inhibition at 10 µM was determined as 100%. Further, the inhibition at 1 µM at 5-Lipoxygenase (10^-6 M) worked out at 100%. In addition, the inhibition at 0.1 µM on 5-Lipoxygenase (10^-7 M) came out at 57%. On 5-Lipoxygenase (10^-8 M), the inhibition at 0.01 µM was 0%. At 12-Lipoxygenase, the inhibition at 100 µM amounted to 97%, the inhibition at 10 µM was 78% and the inhibition at 1 µM came out at 14%.
Regarding `Cc1c(C)c2c(c(C)c1O)CC(C)(/C=C\Cc1ccccc1)O2` (stereo not shown) [Compound 15], at 12-Lipoxygenase, the inhibition at 100 µM is 100%, the inhibition at 10 µM turned out to be 100%, the inhibition at 1 µM was 99% and the inhibition at 0.1 µM came out at 25%.
On to `Cc1c(C)c2c(c(C)c1O)CC(C)(/C=C/Cc1ccccc1)O2` (stereo not shown) [Compound 17], for which, on 12-Lipoxygenase, the inhibition at 100 µM was found to be 100%, the inhibition at 10 µM was 99%, the inhibition at 1 µM was determined as 98% and the inhibition at 0.1 µM came out at 22%.
Consider `Cc1c(C)c2c(c(C)c1O)CC(C)(/C=C/c1ccccc1)O2` (stereo not shown) [Compound 18], for which, at 12-Lipoxygenase, the inhibition at 100 µM came to 100%, the inhibition at 10 µM came to 100%, the inhibition at 1 µM was 89% and the inhibition at 0.1 µM amounted to 18%.
Consider `Cc1c(C)c2c(c(C)c1O)CC(C)(CCCc1ccccc1)O2` (stereo not shown) [Compound 20], for which, on 12-Lipoxygenase, the inhibition at 100 µM is 100%, the inhibition at 10 µM worked out at 99%, the inhibition at 1 µM is 97% and the inhibition at 0.1 µM amounted to 9%.
On the same counts, the results for `Cc1c(C)c2c(c(C)c1O)CC(C)(/C=C\CCc1ccccc1)O2` (stereo not shown) [Compound 21] are 100%, 100%, 98% and 21%.
For the molecule `Cc1c(C)c2c(c(C)c1O)CC(C)(CCCCc1ccccc1)O2` (stereo not shown) [Compound 23], at 12-Lipoxygenase, the inhibition at 100 µM was 100%, the inhibition at 10 µM was 100%, the inhibition at 1 µM amounted to 92% and the inhibition at 0.1 µM turned out to be 19%.
On to `COc1ccc(/C=C\C2(C)Cc3c(C)c(O)c(C)c(C)c3O2)cc1` (stereo not shown) [Compound 24], for which, on 12-Lipoxygenase, the inhibition at 100 µM was 100%, the inhibition at 10 µM is 99%, the inhibition at 1 µM stood at 98% and the inhibition at 0.1 µM amounted to 13%.
For `COc1ccc(CCC2(C)Cc3c(C)c(O)c(C)c(C)c3O2)cc1` (stereo not shown) [Compound 26], on 12-Lipoxygenase, the inhibition at 100 µM amounted to 100%, the inhibition at 10 µM is 99% and the inhibition at 1 µM is 28%.
For `COc1cccc(/C=C\C2(C)Cc3c(C)c(O)c(C)c(C)c3O2)c1` (stereo not shown) [Compound 27], at 12-Lipoxygenase, the inhibition at 100 µM stood at 100%, the inhibition at 10 µM stood at 100%, the inhibition at 1 µM is 99% and the inhibition at 0.1 µM was found to be 19%.
Regarding `COc1cccc(CCC2(C)Cc3c(C)c(O)c(C)c(C)c3O2)c1` (stereo not shown) [Compound 29], at 12-Lipoxygenase, the inhibition at 100 µM worked out at 100%, the inhibition at 10 µM worked out at 99%, the inhibition at 1 µM is 58% and the inhibition at 0.1 µM was 7%.
As for `Cc1c(C)c2c(c(C)c1O)CC(C)(/C=C\c1ccc(F)cc1)O2` (stereo not shown) [Compound 30], on 12-Lipoxygenase, the inhibition at 100 µM was 100%, the inhibition at 10 µM was 100%, the inhibition at 1 µM amounted to 98% and the inhibition at 0.1 µM was found to be 21%.
`Cc1c(C)c2c(c(C)c1O)CC(C)(CCc1ccc(F)cc1)O2` (stereo not shown) [Compound 32]: at 12-Lipoxygenase, the inhibition at 100 µM came out at 99%, the inhibition at 10 µM came to 99%, the inhibition at 1 µM was determined as 45% and the inhibition at 0.1 µM was found to be 2%.
Take `Cc1ccc(/C=C\C2(C)Cc3c(C)c(O)c(C)c(C)c3O2)cc1` (stereo not shown) [Compound 33]: at 12-Lipoxygenase, the inhibition at 100 µM amounted to 100%, the inhibition at 10 µM was determined as 100%, the inhibition at 1 µM stood at 28% and the inhibition at 0.1 µM worked out at 2%.
For `Cc1ccc(CCC2(C)Cc3c(C)c(O)c(C)c(C)c3O2)cc1` (stereo not shown) [Compound 35], on 12-Lipoxygenase, the inhibition at 100 µM was 99%, the inhibition at 10 µM amounted to 99%, the inhibition at 1 µM is 49% and the inhibition at 0.1 µM stood at 8%.
On to `CCC/C=C\C1(C)Cc2c(C)c(O)c(C)c(C)c2O1` (stereo not shown) [Compound 36], for which, on 12-Lipoxygenase, the inhibition at 100 µM amounted to 100%, the inhibition at 10 µM was 100%, the inhibition at 1 µM stood at 100% and the inhibition at 0.1 µM is 97%.
Take `CCCCCC1(C)Cc2c(C)c(O)c(C)c(C)c2O1` (stereo not shown) [Compound 37]: at 12-Lipoxygenase, the inhibition at 100 µM amounted to 100%, the inhibition at 10 µM is 100%, the inhibition at 1 µM stood at 31% and the inhibition at 0.1 µM came to 2%.
In the case of `CCCCCCC/C=C\C1(C)Cc2c(C)c(O)c(C)c(C)c2O1` (stereo not shown) [Compound 38], at 12-Lipoxygenase, the inhibition at 100 µM came to 99%, the inhibition at 10 µM turned out to be 99%, the inhibition at 1 µM is 90% and the inhibition at 0.1 µM came to 3%.
Turning to `CCCCCCCCCC1(C)Cc2c(C)c(O)c(C)c(C)c2O1` (stereo not shown) [Compound 39], at 12-Lipoxygenase, the inhibition at 100 µM amounted to 100%, the inhibition at 10 µM amounted to 100% and the inhibition at 1 µM was 32%.
On to `CCCCCCCCCCC/C=C\C1(C)Cc2c(C)c(O)c(C)c(C)c2O1` (stereo not shown) [Compound 40], for which, on 12-Lipoxygenase, the inhibition at 100 µM came out at 99%, the inhibition at 10 µM was 96%, the inhibition at 1 µM is 48% and the inhibition at 0.1 µM is 6%.
On the same counts, the results for `CCCCCCCCCCCCCC1(C)Cc2c(C)c(O)c(C)c(C)c2O1` (stereo not shown) [Compound 41] are 99%, 74%, 20% and 9%.
